From article PMC11369193, “Structural insights into human ABCD3-mediated peroxisomal acyl-CoA translocation” (Cell Discovery, 2024)
Blank lines part the entries; values can stand above or below the molecule they belong to.

Key:
[1] = target: T1, chABCD3; assay: stimulation of ATPase activity, malachite green phosphate assay; cryo-EM structure […] Å (digitonin); assay type: biochemical, Homo sapiens; conditions: 2 mM ATP; LMNG + CHS; 20 mM Tris-HCl pH 7.5, 2 mM MgCl2, 37 °C; activation of ATPase; two sites per dimer
T1 construct: gene ABCD3; C. elegans PMP2 residues 1-50 fused to human ABCD3 residues 51-659, N-terminal FLAG tag, HEK293F, homodimer; PMP2 segment invisible in structures; with Peroxisomal Membrane Protein related (Caenorhabditis elegans)

[2] = target: chimeric ABCD3 (chABCD3): N-terminal 50 residues of C. elegans PMP2 fused to the core domains of human ABCD3, wild type (Caenorhabditis elegans | human) (UniProt P28288); assay: cryo-EM structure; purified chABCD3 (~10 mg/mL) in digitonin with 0.5 mM phytanoyl-CoA; C2 symmetry; inward-facing conformation; 2.9 Å
[3] = system: T1, chABCD3; assay: ATPase activity, malachite green phosphate assay; cryo-EM structure […] Å (GDN); assay type: biochemical, Homo sapiens; conditions: LMNG + CHS detergent; 20 mM Tris-HCl pH 7.5, 2 mM MgCl2, 37 °C; no acyl-CoA (basal); structure with 10 mM ATP/Mg2+
[4] = system: T1, chABCD3; assay: ATPase activity, malachite green phosphate assay; assay type: biochemical, Homo sapiens; conditions: LMNG + CHS detergent; 20 mM Tris-HCl pH 7.5, 2 mM MgCl2, 37 °C; no acyl-CoA (basal)
[5] = substrate: Nc1ncnc2c1ncn2[C@@H]1O[C@H](COP(=O)(O)OP(=O)(O)OP(=O)(O)O)[C@@H](O)[C@H]1O; assay: ATPase activity, malachite green phosphate assay; assay type: biochemical, Homo sapiens; conditions: LMNG + CHS detergent, 20 mM Tris-HCl pH 7.5, 2 mM MgCl2, 37 °C, no acyl-CoA (basal)

Molecule: Nc1ncnc2c1ncn2[C@@H]1O[C@H](COP(=O)(O)OP(=O)(O)OP(=O)(O)O)[C@@H](O)[C@H]1O [ATP]
- Km [3]: 190 µM
- Km [4]: 160 µM

B1: hABCD3 (Homo sapiens) (protein)
chain: MAAFSKYLTARNSSLAGAAFLLLCLLHKRRRALGLHGKKSGKPPLQNNEKEGKKERAVVDKVFFSRLIQILKIMVPRTFCKETGYLVLIAVMLVSRTYCDVWMIQNGTLIESGIIGRSRKDFKRYLLNFIAAMPLISLVNNFLKYGLNELKLCFRVRLTKYLYEEYLQAFTYYKMGNLDNRIANPDQLLTQDVEKFCNSVVDLYSNLSKPFLDIVLYIFKLTSAIGAQGPASMMAYLVVSGLFLTRLRRPIGKMTITEQKYEGEYRYVNSRLITNSEEIAFYNGNKREKQTVHSVFRKLVEHLHNFILFRFSMGFIDSIIAKYLATVVGYLVVSRPFLDLSHPRHLKSTHSELLEDYYQSGRMLLRMSQALGRIVLAGREMTRLAGFTARITELMQVLKDLNHGKYERTMVSQQEKGIEGVQVIPLIPGAGEIIIADNIIKFDHVPLATPNGDVLIRDLNFEVRSGANVLICGPNGCGKSSLFRVLGELWPLFGGRLTKPERGKLFYVPQRPYMTLGTLRDQVIYPDGREDQKRKGISDLVLKEYLDNVQLGHILEREGGWDSVQDWMDVLSGGEKQRMAMARLFYHKPQFAILDECTSAVSVDVEGYIYSHCRKVGITLFTVSHRKSLWKHHEYYLHMDGRGNYEFKQITEDTVEFGS
notes: full-length (659 residues), codon-optimized, N-terminal FLAG tag, expressed in HEK293F; LMNG + CHS detergent
- Km [5]: 240 µM

Results, then the molecule that gave them:

- EC50 [1]: ~460 nM
Molecule: CC(C)CCCC(C)CCCC(C)CCCC(C)CC(=O)SCCNC(=O)CCNC(=O)[C@H](O)C(C)(C)COP(=O)(O)OP(=O)(O)OC[C@H]1O[C@@H](n2cnc3c(N)ncnc32)[C@H](O)[C@@H]1OP(=O)(O)O (some centres unmarked) [phytanoyl-CoA]

- stoichiometry N [2]: 2
Molecule: chimeric ABCD3 (chABCD3): N-terminal 50 residues of C. elegans PMP2 fused to the core domains of human ABCD3, wild type (from UniProt P28288 51-659)
